The nature of the test: Inhibition of LDHB Activity. The method, then: This example describes a human LDHB biochemical assay employed in the characterization of a compound of Formula I in an embodiment of the dislcosure.Test compounds were placed in a Greiner Bio-One (Monroe, N.C.) 1536-well black solid bottom assay plate. 200 mM Tris HCl, pH 7.4, 100 μM EDTA and 0.01% TWEEN-20 , final concentration, was used as the assay buffer. The LDHB reagent was 2 nM Human LDHB (Meridian Life Science, Inc., Memphis, Tenn.), final concentration, in assay buffer. The substrate reagent was 0.13 mM NADH and 0.16 mM sodium pyruvate, final concentration, in assay buffer. The resazurin/diaphorase coupling reagent was 0.037 mM resazurin and 0.133 mg/mL diaphorase, final concentration, in assay buffer.

Experimental findings from BindingDB's records for patent US11752138 (Vanderbilt University, 2023) are described below.

In the case of `CC1CC=C(c2cc(-c3nn(-c4nc(C(=O)O)cs4)c(CC4CC4)c3Cc3ccc(S(N)(=O)=O)c(F)c3)ccc2F)CC1` (configuration not stated) [US11752138, Compound 101], the IC50 is below 100 nM.

Consider `CC1CCCC=C1c1cc(-c2nn(-c3nc(C(=O)O)cs3)c(CC3CC3)c2Cc2ccc(S(N)(=O)=O)c(F)c2)ccc1F` (configuration not stated) [US11752138, Compound 103], for which the IC50 is below 100 nM.

With `COC1CC=C(c2cc(-c3nn(-c4nc(C(=O)O)cs4)c(CC4CC4)c3Cc3ccc(S(N)(=O)=O)c(F)c3)ccc2F)CC1` (configuration not stated) [US11752138, Compound 104], the IC50 is below 100 nM.

Regarding `CC1(C)CC=C(c2cc(-c3nn(-c4nc(C(=O)O)cs4)c(CC4CC4)c3Cc3ccc(S(N)(=O)=O)c(F)c3)ccc2F)CC1` [US11752138, Compound 106], the IC50 is below 100 nM.

Molecule `Cc1ncc(C#Cc2cc(-c3nn(-c4nc(C(=O)O)cs4)c(CC4CC4)c3Cc3ccc(S(N)(=O)=O)c(F)c3)ccc2F)s1` [US11752138, Compound 111] had a 50% inhibitory concentration (IC50) below 100 nM.

Consider `Cc1ccc(C#Cc2cccc(-c3nn(-c4nc(C(=O)O)cs4)c(CC4CC4)c3Cc3ccc(S(N)(=O)=O)c(F)c3)c2)s1` [US11752138, Compound 112], for which the IC50 is below 100 nM.

`Cc1ccc(C#Cc2cc(-c3nn(-c4nc(C(=O)O)cs4)c(CCC4CC4)c3Cc3ccc(S(N)(=O)=O)c(F)c3)ccc2F)s1` [US11752138, Compound 113] had an IC50 below 100 nM.

The molecule `Cc1cnc(C#Cc2cc(-c3nn(-c4nc(C(=O)O)cs4)c(CC4CC4)c3Cc3ccc(S(N)(=O)=O)c(F)c3)ccc2F)s1` [US11752138, Compound 114] displayed a half-maximal inhibitory concentration (IC50) below 100 nM.

`Cc1ccc(C#Cc2cccc(-c3nn(-c4nc(C(=O)O)cs4)c(CCC4CC4)c3Cc3ccc(S(N)(=O)=O)c(F)c3)c2)s1` [US11752138, Compound 115]: the IC50 is below 100 nM.

As to `NS(=O)(=O)c1ccc(Cc2c(-c3cccc(C#Cc4ccc(Cl)s4)c3)nn(-c3nc(C(=O)O)cs3)c2CC2CC2)cc1F` [US11752138, Compound 118], the IC50 is below 100 nM.

The molecule `Cc1ccc(/C=C/c2cccc(-c3nn(-c4nc(C(=O)O)cs4)c(CC4CC4)c3Cc3ccc(S(N)(=O)=O)c(F)c3)c2)s1` [US11752138, Compound 119] displayed an IC50 below 100 nM.

`Cc1ccsc1C#Cc1cccc(-c2nn(-c3nc(C(=O)O)cs3)c(CC3CC3)c2Cc2ccc(S(N)(=O)=O)c(F)c2)c1` [US11752138, Compound 120] yielded an IC50 below 100 nM.

In turn, `NS(=O)(=O)c1ccc(Cc2c(-c3cccc(C#Cc4ccc(C(F)F)s4)c3)nn(-c3nc(C(=O)O)cs3)c2CC2CC2)cc1F` [US11752138, Compound 121] showed an IC50 below 100 nM.

In turn, `Cc1cnc(C#Cc2cccc(-c3nn(-c4nc(C(=O)O)cs4)c(CC4CC4)c3Cc3ccc(S(N)(=O)=O)c(F)c3)c2)o1` [US11752138, Compound 122] came in with an IC50 below 100 nM.

The molecule `Cc1ccc(C#Cc2cccc(-c3nn(-c4nc(C(=O)O)cs4)c(CC4(C)CC4)c3Cc3ccc(S(N)(=O)=O)c(F)c3)c2)s1` [US11752138, Compound 123] showed a half-inhibitory concentration (IC50) below 100 nM.

As to `Cc1cc(C)c(C#Cc2cccc(-c3nn(-c4nc(C(=O)O)cs4)c(CC4CC4)c3Cc3ccc(S(N)(=O)=O)c(F)c3)c2)s1` [US11752138, Compound 125], the IC50 is below 100 nM.

Consider `Cc1ccc(C#Cc2cccc(-c3nn(-c4nc(C(=O)O)cs4)c(CC4CC4)c3Cc3ccc(S(N)(=O)=O)c(F)c3)c2)o1` [US11752138, Compound 129], for which the IC50 was below 100 nM.

`Cc1ccc(C2CC2c2cccc(-c3nn(-c4nc(C(=O)O)cs4)c(CC4CC4)c3Cc3ccc(S(N)(=O)=O)c(F)c3)c2)s1` (configuration not stated) [US11752138, Compound 130] registered an IC50 below 100 nM.

The molecule `Cc1ccc(-c2cc(-c3nn(-c4nc(C(=O)O)cs4)c(CC4CC4)c3Cc3ccc(S(N)(=O)=O)c(F)c3)ccc2F)cc1F` [US11752138, Compound 137] returned an IC50 below 100 nM.

On to `CC(=O)c1cc(-c2nn(-c3nc(C(=O)O)cs3)c(CC3CC3)c2Cc2ccc(S(N)(=O)=O)c(F)c2)ccc1F` [US11752138, Compound 140], for which the IC50 is below 100 nM.

In turn, `COc1ccc(-c2cc(-c3nn(-c4nc(C(=O)O)cs4)c(CC4CC4)c3Cc3ccc(S(N)(=O)=O)c(F)c3)ccc2F)cc1C` [US11752138, Compound 150] gave an IC50 below 100 nM.

`NS(=O)(=O)c1ccc(Cc2c(-c3ccc(F)c(NC(=O)c4ccccc4)c3)nn(-c3nc(C(=O)O)cs3)c2CC2CC2)cc1F` [US11752138, Compound 152]: the IC50 was below 100 nM.

`COc1cc(OC)cc(-c2cc(-c3nn(-c4nc(C(=O)O)cs4)c(CC4CC4)c3Cc3ccc(S(N)(=O)=O)c(F)c3)ccc2F)c1` [US11752138, Compound 153] gave an IC50 below 100 nM.

The molecule `NS(=O)(=O)c1ccc(Cc2c(-c3ccc(F)c(-c4cc(F)cc(F)c4)c3)nn(-c3nc(C(=O)O)cs3)c2CC2CC2)cc1F` [US11752138, Compound 156] displayed an IC50 below 100 nM.

With `CC(C)N1CC2(CN(c3cc(-c4nn(-c5nc(C(=O)O)cs5)c(CC5CC5)c4Cc4ccc(S(N)(=O)=O)c(F)c4)ccc3F)C2)C1` [US11752138, Compound 158], the IC50 is below 100 nM.

Molecule `NS(=O)(=O)c1ccc(Cc2c(-c3ccc(F)c(-c4ncc[nH]4)c3)nn(-c3nc(C(=O)O)cs3)c2CC2CC2)cc1F` [US11752138, Compound 159] yielded an IC50 below 100 nM.

In turn, `Cc1ncc(-c2cc(-c3nn(-c4nc(C(=O)O)cs4)c(CC4CC4)c3Cc3ccc(S(N)(=O)=O)c(F)c3)ccc2F)[nH]1` [US11752138, Compound 161] came in with an IC50 below 100 nM.

The molecule `NS(=O)(=O)c1ccc(Cc2c(-c3cccc(-c4ccc(Cl)c(F)c4)c3)nn(-c3nc(C(=O)O)cs3)c2CC2CC2)cc1F` [US11752138, Compound 164] displayed an IC50 below 100 nM.

As for `COc1ccc(-c2cccc(-c3nn(-c4nc(C(=O)O)cs4)c(CC4CC4)c3Cc3ccc(S(N)(=O)=O)c(F)c3)c2)cc1C` [US11752138, Compound 165], the IC50 was below 100 nM.

`NS(=O)(=O)c1ccc(Cc2c(-c3cccc(-c4ccc(Cl)cc4)c3)nn(-c3nc(C(=O)O)cs3)c2CC2CC2)cc1F` [US11752138, Compound 166] showed an IC50 below 100 nM.

`Cc1ccc(-c2cccc(-c3nn(-c4nc(C(=O)O)cs4)c(CC4CC4)c3Cc3ccc(S(N)(=O)=O)c(F)c3)c2)cc1F` [US11752138, Compound 167] gave an IC50 below 100 nM.

For the molecule `CC(C)c1ccc(-c2cccc(-c3nn(-c4nc(C(=O)O)cs4)c(CC4CC4)c3Cc3ccc(S(N)(=O)=O)c(F)c3)c2)cc1` [US11752138, Compound 169], the IC50 was below 100 nM.

`CC(C)c1cccc(-c2cccc(-c3nn(-c4nc(C(=O)O)cs4)c(CC4CC4)c3Cc3ccc(S(N)(=O)=O)c(F)c3)c2)c1` [US11752138, Compound 173] registered an IC50 below 100 nM.

Molecule `NS(=O)(=O)c1ccc(Cc2c(-c3cccc(-c4cccc(Cl)c4)c3)nn(-c3nc(C(=O)O)cs3)c2CC2CC2)cc1F` [US11752138, Compound 175] displayed an IC50 below 100 nM.

On to `N#Cc1ccc(-c2cccc(-c3nn(-c4nc(C(=O)O)cs4)c(CC4CC4)c3Cc3ccc(S(N)(=O)=O)c(F)c3)c2)cc1` [US11752138, Compound 176], for which the IC50 was below 100 nM.

For the molecule `CN(C)c1ccc(-c2cccc(-c3nn(-c4nc(C(=O)O)cs4)c(CC4CC4)c3Cc3ccc(S(N)(=O)=O)c(F)c3)c2)cc1` [US11752138, Compound 178], the IC50 is below 100 nM.

`Cc1ccc(C#Cc2cc(-c3nn(-c4nc(C(=O)O)cs4)c(CC4CC4)c3Cc3ccc(S(N)(=O)=O)c(F)c3)ccc2F)s1` [US11752138, Compound 249]: the IC50 is below 100 nM.
